Test results from patent publication US5484940A, “Substituted 3-indolyl-5-pyrazolone compounds” (priority 1994, dated 1996).

Key:
human cortical neurons = assay: Inhibition of toxicity of β-amyloid peptide to human neuronal cells (alamarBlue); assay type: cell-based; conditions: 50 μM β-amyloid peptide, 2-3 days; on average where more than one duplicate experiment; compound concentration not stated
Procedure: (§1) The purpose of this test is to determine the effect of 3-indolyl-5-pyrazolone compounds on the toxicity of β-amyloid peptide to neuronal cells.
Primary Human Cortical Cell Culture
Primary human cortical cultures were prepared using a modification of the procedure described by Seubert, et al.^21 Following filtration through Nitex nylon screens, cortical tissue was resuspended in a trypsin/EDTA solution (0.05% trypsin+0.53 mM EDTA in HBSS; GIBCO Laboratories, Grand Island, N.Y., USA) and kept at 37° C. for 20 minutes. The trypsin was then inactivated by resuspending the cells in serum-containing medium (MEM/FBS: Modified Eagles' Medium (MEM) containing 1% glucose, 1 mM sodium pyruvate, 1 mM glutamine, and supplemented with 10% fetal bovine serum (GIBCO). Cells were then pelleted by centrifugation and resuspended in a chemically-defined medium (MEM/B27: MEM containing B27 supplement in place of FBS; GIBCO). Polyethyleneimine (PEI; Sigma Chemical Company, St. Louis, Mo., USA)-coated 6.4 mm (96-well) dishes were rinsed once with MEM/FBS, and then seeded at 0.75 to 1.25×10^5 cells per well in 0.1 mL MEM/B27. Cultures were maintained in a H2 O-saturated incubator with an atmosphere of 95% air/5% CO 2 at 37° C. The culture medium was exchanged twice weekly. Cell viability was visually assessed by phase contrast microscopy and quantified by measuring the reduction of alamarBlue™ (Alamar Biosciences, Inc., Sacramento, Calif., USA).
(§2) β-amyloid peptide stock solutions were prepared as 1 mM stocks in sterile, doubly distilled water immediately prior to addition to cultures. Rat cortical neurons were exposed to β-amyloid peptide by removing the culture medium and replacing it with DMEM/N2 (GIBCO Laboratories,Grand Island, N.Y., USA) containing 10 to 20 μM β-amyloid peptide. Human cortical neurons were exposed to test compound plus β-amyloid peptide by removing the culture medium and replacing it with MEM containing 50 μM β-amyloid peptide. Cultures were maintained for 2-3 days before neuronal survival was quantified using alamarBlue™.
(§3) The alamarBlue™ assay incorporates a fluorometric/colorimetric metabolic indicator (Alamar Biosciences, Inc. Sacramento, Calif., USA). Viable cells convert alamarBlue™ from an oxidized (non-fluorescent, blue) form to a reduced (fluorescent, red) form. Assays were preformed by replacing the culture media with a 10% alamarBlue™ solution in DMEM (rat cortical cultures) or MEM (human cortical cultures).

293 751 SWE cells = assay: Cytotoxicity (MTT) in 293 751 SWE cells; assay type: cell-based, human; conditions: concentration not given
Procedure: (§4) This screening assay employed cells (K293=human kidney cell line) which were stably transfected with the gene for amyloid precursor protein 751 (APP751) containing the double mutation Lys651 Met652 to Asn651 Leu652 (APP751 numbering) in the manner described in International Patent Application Publication No. 94/10569^1 and Citron et al.^16. This mutation is commonly called the Swedish mutation and the cells, designated as "293 751 SWE", were plated in Coming 96-well plates at 1.5-2.5×10^4 cells per well in Dulbecco's minimal essential media plus 10% fetal bovine serum. Cell number is important in order to achieve β-amyloid ELISA results within the linear range of the assay (~0.2 to 2.5 ng per mL).
Cytotoxic effects of the compounds were measured by a modification of the method of Hansen, et al.^17. To the cells remaining in the tissue culture plate was added 25 μL of a 3,(4,5-dimethylthiazol-2-yl)2,5-diphenyltetrazolium bromide (MTT) stock solution (5 mg/mL) to a final concentration of 1 mg/mL. Cells were incubated at 37° C. for one hour, and cellular activity was stopped by the addition of an equal volume of MTT lysis buffer (20% w/v sodium dodecylsulfate in 50% dimethylformamide, pH 4.7). Complete extraction was achieved by overnight shaking at room temperature. The difference in the OD562nm and the OD650nm was measured in a Molecular Device's UVmax microplate reader as an indicator of the cellular viability.

rat cortical neurons = assay: Inhibition of toxicity of β-amyloid peptide to rat neuronal cells (alamarBlue); assay type: cell-based; conditions: 10 to 20 μM β-amyloid peptide, 2-3 days; on average where more than one duplicate experiment; compound concentration not stated
Procedure: as §1
Primary rat cortical cultures were established from 18 day rat fetuses. Cortical tissue was dissociated by incubation in a trypsin/EDTA solution (0.05% trypsin+0.53 mM EDTA in HBSS; GIBCO Laboratories, Grand Island, N.Y., USA) for 20 minutes at 37° C. The trypsin was then inactivated by resuspending the cells in serum-containing medium (DMEM/FBS): Dulbecco's Modified Eagles' Medium (DMEM) containing 4.5 g/L glucose, 1 mM sodium pyruvate, 1 mM glutamine, 100 Units/mL penicillin, 100 μg/mL streptomycin, and supplemented with 10% heat-inactivated fetal bovine serum (GIBCO Laboratories, Grand Island, N.Y., USA). Cells were then pelleted by centrifugation and resuspended in a chemically-defined medium (DMEM/B27: DMEM containing B27 supplement; GIBCO Laboratories, Grand Island, N.Y., USA) in place of FBS. Polyethyleneimine (PEI; Sigma Chemical Company, St. Louis, Mo., USA)-coated 6.4 mm (96-well) dishes were timed once with DMEM/FBS, and then seeded at 0.75 to 1.25×10^5 cells per well in 0.1 mL DMEM/B27. Cultures were maintained in a H2 O-saturated incubator with an atmosphere of 90% air/10% CO2 at 37° C. Cell viability was visually assessed by phase contrast microscopy and quantified by measuring the reduction of alamarBlue™ (Alamar biosciences, Inc., Sacramento, Calif., USA) as described below. Serum replacement with B27 supplement yields nearly pure neuronal cultures as judged by immunocytochemistry for glial fibrillary acidic protein and neuron-specific enolase (Brewer, et al.^20)
as §2, §3

[1] = tested on: β-amyloid peptide production; assay: Cellular screen for inhibitors of β-amyloid production (ELISA, 293 751 SWE cells); assay type: cell-based, human; conditions: 2 h pretreatment + 2 h, normalized for cytotoxicity (MTT), concentration not given
Procedure: as §4
Following overnight incubation at 37° C. in an incubator equilibrated with 10% carbon dioxide, media were removed and replaced with 200 μL of a substituted 3-indolyl-5-pyrazolone (drug) containing media per well for a two hour pretreatment period and cells were incubated as above.
At the end of the pretreatment period, the media were again removed and replaced with fresh drag containing media as above and cells were incubated for an additional two hours. After treatment, plates were centrifuged in a Beckman GPR at 1200 rpm for five minutes at room temperature to pellet cellular debris from the conditioned media. From each well, 100 μL of conditioned media or appropriate dilutions thereof were transferred into an ELISA plate precoated with antibody 266 against amino acids 13-28 of β-amyloid peptide as described in International Patent Application Publication No. 94/10569^1 and stored at 4° C. overnight. An ELISA assay employing labelled antibody 6C6 against amino acids 1-16 of β-amyloid peptide was run the next day to measure the amount of β-amyloid peptide produced.
The results of the β-amyloid peptide ELISA were fit to a standard curve and expressed as ng/mL β-amyloid peptide. […] All results are the mean and standard deviation of at least six replicate assays.

Row | SMILES | inhibition of the toxicity of β-amyloid peptide to human neuronal cells (human cortical neurons) | cytotoxic effect on the 293 751 SWE cells (293 751 SWE cells) | inhibition of the toxicity of β-amyloid peptide to rat neuronal cells (rat cortical neurons) | reduction of β-amyloid peptide production as compared to control [1]
1 | COc1ccc2c(c1)c(CC1=NN(c3ccc(C)cc3)C(=O)C1)c(C)n2C(=O)c1ccc(Cl)cc1 [Example 34, 3-[1-(4-chlorobenzoyl)-5-methoxy-2-methyl-3-indolylmethyl]-1-(4-methylphenyl)-5-pyrazolone] | at least 25% | did not have a significant cytotoxic effect | at least 10% | at least 20%
2 | COc1ccc2c(c1)c(CC1=NNC(=O)C1)c(C)n2C(=O)c1ccc(Cl)cc1 [Example 15, 3-[1-(4-chlorobenzoyl)-5-methoxy-2-methyl-3-indolylmethyl]-5-pyrazolone] | at least 25% |  | < 10% | < 20%
3 | COc1ccc2c(c1)c(CC1=NN(c3ccccc3C)C(=O)C1)c(C)n2C(=O)c1ccc(Cl)cc1 [E] | at least 25% |  | at least 10% | 
4 | COc1ccc2c(c1)c(CC1=NN(c3cccc([N+](=O)[O-])c3)C(=O)C1)c(C)n2C(=O)c1ccc(Cl)cc1 [Example 30, 3-[1-(4-chlorobenzoyl)-5-methoxy-2-methyl-3-indolylmethyl]-1-(3-nitrophenyl)-5-pyrazolone] | at least 25% | did not have a significant cytotoxic effect | < 10% | at least 20%
5 | COc1ccc2c(c1)c(CC1=NN(c3cccc(Cl)c3)C(=O)C1)c(C)n2C(=O)c1ccc(Cl)cc1 [Example 26, 3-[1-(4-chlorobenzoyl)-5-methoxy-2-methyl-3-indolylmethyl]-1-(3-chlorophenyl)-5-pyrazolone] | at least 25% | did not have a significant cytotoxic effect | at least 10% | at least 20%
6 | COc1ccc2c(c1)c(CC1=NN(c3cc(Cl)cc(Cl)c3)C(=O)C1)c(C)n2C(=O)c1ccc(Cl)cc1 [Example 27, 3-[1-(4-chlorobenzoyl)-5-methoxy-2-methyl-3-indolylmethyl]-1-(3,5-dichlorophenyl)-5-pyrazolone] | at least 25% | did not have a significant cytotoxic effect | at least 10% | at least 20%
7 | O=C1CC(Cc2c[nH]c3ccccc23)=NN1C1CCCCC1 [Example 18, 3-(3-indolylmethyl)-1-cyclohexyl-5-pyrazolone] | at least 25% |  | < 10% | 
8 | COc1ccc2c(c1)c(CC1=NN(c3ccccc3)C(=O)C1)c(C)n2C(=O)c1ccc(Cl)cc1 [Example 8, 3-[1-(4-chlorobenzoyl)-5-methoxy-2-methyl-3-indolylmethyl]-1-phenyl-5-pyrazolone] | at least 25% | did not have a significant cytotoxic effect | < 10% | at least 20%
9 | COc1cccc(N2N=C(Cc3c(C)n(C(=O)c4ccc(Cl)cc4)c4ccc(OC)cc34)CC2=O)c1 [Example 24, 3-[1-(4-chlorobenzoyl)-5-methoxy-2-methyl-3-indolylmethyl]-1-(3-methoxyphenyl)-5-pyrazolone] | at least 25% | did not have a significant cytotoxic effect | at least 10% | at least 20%
10 | O=C1CC(Cc2cn(C(=O)c3ccc(Cl)cc3)c3ccccc23)=NN1 [A, 3-[1-(4-chlorobenzoyl)-3-indolylmethyl]-5-pyrazolone] | at least 25% |  | at least 10% | 
11 | COc1ccc(N2N=C(Cc3c(C)n(C(=O)c4ccc(Cl)cc4)c4ccc(OC)cc34)CC2=O)cc1 [Example 23, 3-[1-(4-chlorobenzoyl)-5-methoxy-2-methyl-3-indolylmethyl]-1-(4-methoxyphenyl)-5-pyrazolone] | at least 25% | did not have a significant cytotoxic effect | < 10% | at least 20%
12 | O=C1CC(CCc2c[nH]c3ccccc23)=NN1C1CCCCC1 [D, 3-[3-indolylethyl]-1-cyclohexyl-5-pyrazolone] | at least 25% |  | < 10% | 
13 | COc1ccc2c(c1)c(CC1=NN(c3cccc(C)c3)C(=O)C1)c(C)n2C(=O)c1ccc(Cl)cc1 [Example 31, 3-[1-(4-chlorobenzoyl)-5-methoxy-2-methyl-3-indolylmethyl]-1-(3-methylphenyl)-5-pyrazolone] | at least 25% | did not have a significant cytotoxic effect |  | at least 20%
